Source: ChEMBL document CHEMBL5108047 (J Med Chem, 2022)

What was measured:
DNA polymerase theta [1] = target: T1, DNA polymerase theta (Homo sapiens, UniProt O75417); experiment: Inhibition of human DNA polymerase theta pol domain (1819 to 2590 residues) expressed in Escherichia coli BL21 (DE3) cells preincubated for 15 mins followed by DNA and dNTP addition and measured after 120 mins by Picogreen dye fluorescence intensity analysis
[2] = mouse, microsomes
Description: Metabolic stability in mouse liver microsomes assessed as clearance

[3] = AUC in CD-1 mouse at 20 mg/kg, po measured upto 24 hrs by reverse phase LCMS analysis; assay type: ADME, organism-based; design: time < 24 hrs, dose 20 mg/kg, route po; settings: in vivo
[4] = Plasma protein binding in mouse assessed as unbound fraction by equilibrium dailysis; assay type: ADME, cell-free
[5] = fCaverage in CD-1 mouse; assay type: ADME
DNA polymerase theta [6] = target: T1, DNA polymerase theta; experiment: Inhibition of human DNA polymerase theta using 5'-CACTGACTGTATGATG as primer and DNA 16/19 as substrate by FRET assay
DNA polymerase theta [7] = target: T1, DNA polymerase theta; experiment: Inhibition of human DNA polymerase theta using DNA 16/19 as substrate at 5 nM of enzyme concentration
DNA polymerase theta [8] = target: T1, DNA polymerase theta; experiment: Inhibition of human DNA polymerase theta using DNA 16/19 as substrate at 2 nM of enzyme concentration
DNA polymerase theta [9] = target: T1, DNA polymerase theta; experiment: Inhibition of human DNA polymerase theta using DNA 16/19 as substrate at 1 nM of enzyme concentration
DNA polymerase theta [10] = target: T1, DNA polymerase theta; experiment: Inhibition of human DNA polymerase theta using DNA 16/19 as substrate at 0.5 nM of enzyme concentration

T1 sequence (O75417 whole entry, the tested form may be a part): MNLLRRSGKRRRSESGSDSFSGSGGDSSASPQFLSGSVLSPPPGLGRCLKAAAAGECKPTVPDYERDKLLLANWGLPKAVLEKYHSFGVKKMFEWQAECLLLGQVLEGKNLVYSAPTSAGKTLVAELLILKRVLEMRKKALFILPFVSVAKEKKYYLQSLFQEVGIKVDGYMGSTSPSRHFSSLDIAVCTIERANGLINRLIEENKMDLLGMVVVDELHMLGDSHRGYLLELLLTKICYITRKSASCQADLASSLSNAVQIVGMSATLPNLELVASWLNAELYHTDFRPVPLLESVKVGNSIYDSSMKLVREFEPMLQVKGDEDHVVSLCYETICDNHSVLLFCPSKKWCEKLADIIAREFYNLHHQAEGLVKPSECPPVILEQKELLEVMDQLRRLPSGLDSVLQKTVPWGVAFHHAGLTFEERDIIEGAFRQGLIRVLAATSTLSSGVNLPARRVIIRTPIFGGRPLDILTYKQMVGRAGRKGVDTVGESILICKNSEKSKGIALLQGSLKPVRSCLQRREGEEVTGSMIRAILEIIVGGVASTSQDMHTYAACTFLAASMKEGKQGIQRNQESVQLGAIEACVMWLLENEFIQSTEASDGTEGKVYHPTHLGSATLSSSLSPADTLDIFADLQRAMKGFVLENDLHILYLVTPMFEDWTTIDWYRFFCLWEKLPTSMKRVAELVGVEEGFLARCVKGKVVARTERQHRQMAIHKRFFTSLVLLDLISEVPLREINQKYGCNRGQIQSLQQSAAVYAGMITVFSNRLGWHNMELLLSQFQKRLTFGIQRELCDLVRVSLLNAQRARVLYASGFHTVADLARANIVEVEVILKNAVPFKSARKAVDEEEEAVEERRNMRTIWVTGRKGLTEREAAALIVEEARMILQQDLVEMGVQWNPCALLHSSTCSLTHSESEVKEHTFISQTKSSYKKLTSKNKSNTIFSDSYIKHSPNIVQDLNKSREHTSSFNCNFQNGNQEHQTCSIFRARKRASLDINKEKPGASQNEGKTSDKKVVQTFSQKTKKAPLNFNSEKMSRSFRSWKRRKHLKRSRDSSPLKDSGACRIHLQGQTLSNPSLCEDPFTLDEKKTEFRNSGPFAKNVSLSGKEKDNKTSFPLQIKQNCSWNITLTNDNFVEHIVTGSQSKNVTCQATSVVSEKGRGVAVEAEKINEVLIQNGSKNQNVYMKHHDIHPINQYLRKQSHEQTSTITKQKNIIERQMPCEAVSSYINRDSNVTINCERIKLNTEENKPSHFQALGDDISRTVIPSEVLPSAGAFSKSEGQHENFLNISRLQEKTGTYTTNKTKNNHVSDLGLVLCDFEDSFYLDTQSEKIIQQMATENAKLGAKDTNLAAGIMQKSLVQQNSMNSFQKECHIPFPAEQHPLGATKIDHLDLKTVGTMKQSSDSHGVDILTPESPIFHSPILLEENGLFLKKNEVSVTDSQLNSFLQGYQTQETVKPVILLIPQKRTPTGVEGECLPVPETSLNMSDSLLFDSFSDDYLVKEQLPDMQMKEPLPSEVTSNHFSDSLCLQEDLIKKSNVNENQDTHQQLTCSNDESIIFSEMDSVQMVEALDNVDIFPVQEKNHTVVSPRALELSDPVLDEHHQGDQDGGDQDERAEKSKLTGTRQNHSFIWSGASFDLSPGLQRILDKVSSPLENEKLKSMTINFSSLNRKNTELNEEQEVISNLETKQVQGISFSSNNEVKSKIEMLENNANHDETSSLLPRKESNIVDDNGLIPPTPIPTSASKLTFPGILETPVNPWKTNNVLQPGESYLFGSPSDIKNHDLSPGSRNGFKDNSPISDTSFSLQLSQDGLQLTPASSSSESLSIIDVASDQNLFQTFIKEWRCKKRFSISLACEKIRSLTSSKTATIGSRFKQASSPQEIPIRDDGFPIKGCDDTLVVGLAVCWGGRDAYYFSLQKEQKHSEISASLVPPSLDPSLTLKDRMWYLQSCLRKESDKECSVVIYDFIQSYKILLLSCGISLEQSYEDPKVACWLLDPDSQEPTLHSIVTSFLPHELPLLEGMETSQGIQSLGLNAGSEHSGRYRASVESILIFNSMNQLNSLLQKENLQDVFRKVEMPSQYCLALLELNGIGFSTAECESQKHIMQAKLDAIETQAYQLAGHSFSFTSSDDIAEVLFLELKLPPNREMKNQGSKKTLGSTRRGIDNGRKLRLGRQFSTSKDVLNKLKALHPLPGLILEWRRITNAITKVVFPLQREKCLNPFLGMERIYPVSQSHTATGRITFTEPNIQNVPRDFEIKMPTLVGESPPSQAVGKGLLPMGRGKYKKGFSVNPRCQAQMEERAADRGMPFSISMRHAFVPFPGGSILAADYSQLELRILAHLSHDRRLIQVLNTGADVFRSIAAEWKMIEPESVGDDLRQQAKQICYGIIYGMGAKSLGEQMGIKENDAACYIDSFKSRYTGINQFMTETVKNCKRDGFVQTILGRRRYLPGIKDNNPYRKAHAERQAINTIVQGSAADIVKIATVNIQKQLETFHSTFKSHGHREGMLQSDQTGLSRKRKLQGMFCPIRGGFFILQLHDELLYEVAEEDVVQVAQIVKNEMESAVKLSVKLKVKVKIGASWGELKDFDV

IC50 (DNA polymerase theta [1])	CLH [2]	Structure (SMILES)	also measured
19 nM	52 µL/min/mg	[2H]C([2H])([2H])N(C(=O)Cc1ccc(C(F)(F)F)cc1C(F)(F)F)c1ccc(F)cc1	–
520 nM	> 555 µL/min/mg	CN(C(=O)Cn1nc2c(c1C(F)(F)F)C(C)(C)CC2)c1ccccc1	–
17 nM	125 µL/min/mg	CN(C(=O)Cc1ccc(C(F)(F)F)cc1C(F)(F)F)c1ccc(F)cc1	–
4.2 nM	–	Nc1cnc(C#CCN(C(=O)Cc2ncc(C(F)(F)F)cc2C(F)(F)F)c2ccc(F)cc2)cn1	AUC [3]: 108 µM·h; Fu [4]: 0.018; f(Cave) [5]: 81 nM
1.2 nM	57 µL/min/mg	Cn1cncc1C#CCN(C(=O)Cc1ccc(C(F)(F)F)cc1C(F)(F)F)c1ccccc1	–
0.82 nM	> 832 µL/min/mg	CC(=O)NCC#CCN(C(=O)Cc1ccc(C(F)(F)F)cc1C(F)(F)F)c1ccccc1	–
> 100000 nM	18 µL/min/mg	CN(C(=O)Cn1nc2c(c1C(F)(F)F)C(=O)NCC2)c1ccccc1	–
9200 nM	–	CN(C(=O)Cc1ccccc1C(F)(F)F)c1ccccc1	–
560 nM	> 555 µL/min/mg	CN(C(=O)Cn1nc2c(c1C(F)(F)F)CC(C)(C)C2)c1ccccc1	–
2.9 nM	64 µL/min/mg	O=C(Cc1ccc(C(F)(F)F)cc1C(F)(F)F)N(CC#Cc1ccccn1)c1ccccc1	–
11000 nM	–	CN(C(=O)Cn1nc(C(F)(F)F)c2c1CCCC2)c1ccccc1	–
> 100000 nM	46 µL/min/mg	CN(C(=O)Cn1nc2c(c1C(F)(F)F)C(O)CC2)c1ccccc1 (configuration not stated)	–
65 nM	–	CN(C(=O)Cc1ncc(C(F)(F)F)cc1C(F)(F)F)c1ccccc1	–
58 nM	–	CN(C(=O)Cn1c(C(F)(F)F)cc(C(F)(F)F)cc1=O)c1ccccc1	–
> 100000 nM	16 µL/min/mg	CN(C(=O)Cn1nc2c(c1C(F)(F)F)CNCC2)c1ccccc1	–
2300 nM	> 832 µL/min/mg	CN(C(=O)Cn1nc2c(c1C(F)(F)F)CCC2(C)C)c1ccccc1	–
2200 nM	56 µL/min/mg	CN(C(=O)Cc1ccc(C(F)(F)F)cc1C(F)(F)F)c1ccncc1	–
0.72 nM	–	O=C(Cc1ncc(C(F)(F)F)cc1C(F)(F)F)N(CC#Cc1ccc(C2CCNC2)cn1)c1ccc(F)cc1 (configuration not stated)	AUC [3]: 38 µM·h; Fu [4]: 0.019; f(Cave) [5]: 30 nM
2.1 nM	–	COc1ncc(C#CCN(C(=O)Cc2ncc(C(F)(F)F)cc2C(F)(F)F)c2ccc(F)cc2)cn1	AUC [3]: 7 µM·h; Fu [4]: 0.013; f(Cave) [5]: 3 nM
14 nM	597 µL/min/mg	C#CCN(C(=O)Cc1ccc(C(F)(F)F)cc1C(F)(F)F)c1ccccc1	–
121 nM	–	CN(C(=O)Cc1ccc(Cl)cc1C(F)(F)F)c1ccccc1	–
950 nM	> 832 µL/min/mg	CC1Cc2nn(CC(=O)N(C)c3ccccc3)c(C(F)(F)F)c2C1 (configuration not stated)	–
240 nM	> 555 µL/min/mg	CC1CCc2nn(CC(=O)N(C)c3ccccc3)c(C(F)(F)F)c21 (configuration not stated)	–

IC50 (DNA polymerase theta [1])	CLH [2]	Structure (SMILES)	also measured
4.9 nM	–	COc1ccc(C#CCN(C(=O)Cc2ncc(C(F)(F)F)cc2C(F)(F)F)c2ccc(F)cc2)nn1	AUC [3]: 27.7 µM·h; f(Cave) [5]: 6 nM
710 nM	> 555 µL/min/mg	CN(C(=O)Cn1nc2c(c1C(F)(F)F)CCC2)c1ccccc1	–
2.5 nM	110 µL/min/mg	O=C(Cc1ccc(C(F)(F)F)cc1C(F)(F)F)N(CC#Cc1cccnc1)c1ccccc1	–
0.068 nM	614 µL/min/mg	Cc1nnc(C(=O)NCC#CCN(C(=O)Cc2ccc(C(F)(F)F)cc2C(F)(F)F)c2ccccc2)o1	–
0.51 nM	39 µL/min/mg	O=C(Cc1ccc(C(F)(F)F)cc1C(F)(F)F)N(CC#Cc1cccc(=O)[nH]1)c1ccccc1	–
0.75 nM	–	O=C(Cc1ncc(C(F)(F)F)cc1C(F)(F)F)N(CC#Cc1cnn(C2CNC2)c1)c1ccc(F)cc1	AUC [3]: 14.1 µM·h; Fu [4]: 0.051; f(Cave) [5]: 29 nM
40 nM	–	CN(C(=O)Cc1ccc(C2CC2)cc1C(F)(F)F)c1ccccc1	–
9 nM	–	Cn1cnc(C#CCN(C(=O)Cc2ncc(C(F)(F)F)cc2C(F)(F)F)c2ccc(F)cc2)c1	AUC [3]: 5.31 µM·h; Fu [4]: 0.018; f(Cave) [5]: 3 nM
1.6 nM	–	Nc1ncc(C#CCN(C(=O)Cc2ncc(C(F)(F)F)cc2C(F)(F)F)c2ccc(F)cc2)cn1	AUC [3]: 24.7 µM·h; Fu [4]: 0.015; f(Cave) [5]: 81 nM
3.9 nM	105 µL/min/mg	O=C(Cc1ccc(C(F)(F)F)cc1C(F)(F)F)N(CC#Cc1ncccn1)c1ccccc1	–
0.4 nM	469 µL/min/mg	O=C(NCC#CCN(C(=O)Cc1ccc(C(F)(F)F)cc1C(F)(F)F)c1ccccc1)c1ccccn1	–
0.2 nM	492 µL/min/mg	O=C(NCC#CCN(C(=O)Cc1ccc(C(F)(F)F)cc1C(F)(F)F)c1ccccc1)c1cccnc1	–
0.91 nM	–	CS(=O)(=O)Cn1cc(C#CCN(C(=O)Cc2ncc(C(F)(F)F)cc2C(F)(F)F)c2ccc(F)cc2)cn1	AUC [3]: 76.3 µM·h; Fu [4]: 0.019; f(Cave) [5]: 60 nM
42 nM	115 µL/min/mg	N#CCN(C(=O)Cc1ccc(C(F)(F)F)cc1C(F)(F)F)c1ccccc1	–
17 nM	> 555 µL/min/mg	CN(C(=S)Cn1nc2c(c1C(F)(F)F)CCC2)c1ccccc1	IC50 (DNA polymerase theta [6]): 10 nM; IC50 (DNA polymerase theta [7]): 11.1 nM; IC50 (DNA polymerase theta [8]): 8.71 nM; IC50 (DNA polymerase theta [9]): 7.49 nM; IC50 (DNA polymerase theta [10]): 8.48 nM
0.99 nM	–	CC(C(N)=O)n1cc(C#CCN(C(=O)Cc2ncc(C(F)(F)F)cc2C(F)(F)F)c2ccc(F)cc2)cn1 (configuration not stated)	AUC [3]: 27 µM·h; Fu [4]: 0.044; f(Cave) [5]: 49 nM
43000 nM	23 µL/min/mg	CN(C(=O)Cn1nc2c(c1C(F)(F)F)CS(=O)(=O)C2)c1ccccc1	–
2700 nM	> 832 µL/min/mg	CN(C(=O)Cc1ccc(C(F)(F)F)cc1C(F)(F)F)c1ccccn1	–
–	> 555 µL/min/mg	CN(C(=O)Cn1nc2c(c1C(F)(F)F)CCCC2)c1ccccc1	–
3200 nM	216 µL/min/mg	CN(C(=O)Cc1ccc(C(F)(F)F)cc1C(F)(F)F)c1cccnc1	–
1.7 nM	–	Cn1nc(N)cc1C#CCN(C(=O)Cc1ncc(C(F)(F)F)cc1C(F)(F)F)c1ccc(F)cc1	AUC [3]: 35.6 µM·h; Fu [4]: 0.044; f(Cave) [5]: 65 nM
10000 nM	473 µL/min/mg	Cc1c2c(nn1CC(=O)N(C)c1ccccc1)CCC2	–
